Reference: patent US20250262268A1, “Methods and Compositions for Inhibiting Viral Infection” (New York Genome Center, Inc., priority 2020, published 2025)
“Also recorded” adds a separate entry of the source.

Key:
[1] = system: primary human CD8+ T-cells; test: T cell activation, intracellular cytokine staining after CD3/CD28 stimulation; format: cell-based; details: 10 μM, 1 hour pre-incubation
[2] = system: SARS-CoV-2; test: qPCR of SARS-CoV-2 viral load in non-targeting or PIK3C3 CRISPR-perturbed A549-ACE2 cells treated with PIK3C3 inhibitors; format: cell-based; details: 10 μM, 2 hours pretreatment, MOI 0.1, 36 hpi
[3] = system: SARS-CoV-2; test: qRT-PCR of SARS-CoV-2 viral load in inhibitor-treated A549-ACE2 cells; format: cell-based, SARS-CoV-2 isolate USA-WA1/2020; details: 10 μM inhibitor, MOI 0.1, 36 hpi

## CC[C@H](Nc1ncnc2[nH]cnc12)c1nc2cccc(F)c2c(=O)n1-c1ccccc1 [idelalisib, Idelalisib]
[1]
  release of interferon-gamma (IFNγ) by CD8+ T-cells: significant reduction
  release of tumor necrosis factor (TNF) by CD8+ T-cells: significant reduction

## Cc1cc(Nc2cc(Cl)nc(Oc3ccc([N+](=O)[O-])cc3)n2)n[nH]1 [autophinib, Autophinib]
[2]
  specificity for PIK3C3: viral inhibition in PIK3C3 CRISPR-perturbed versus non-targeting cells: specific

## CC/C(=C(\c1ccccc1)c1ccc(OCCN(C)C)cc1)c1ccccc1 [tamoxifen, Tamoxifen]
[3]
  reduction in SARS-CoV-2 viral load (in words): substantial reduction
[1]
  effect on T-cell activation and cytokine secretion: no effect

## Nc1ncc(-c2ccnc(Nc3ccncc3)n2)c(CC2CC2)n1 [PIK-III]
[2]
  specificity for PIK3C3: viral inhibition in PIK3C3 CRISPR-perturbed versus non-targeting cells: specific

## C[C@@H]1COCCN1c1cc(=O)n2c(n1)N(Cc1cncc(Cl)c1)[C@H](C(F)(F)F)CC2 [SAR405]
[2]
  specificity for PIK3C3: viral inhibition in PIK3C3 CRISPR-perturbed versus non-targeting cells: greater viral inhibition in PIK3C3 CRISPR-perturbed cells; also recorded: may have some off-target effects
